Reference: patent publication US20150216177A1, “METHOD FOR SELECTIVELY INHIBITING SULFATE-REDUCING BACTERIUM, GYPSUM COMPOSITION CAPABLE OF INHIBITING PROLIFERATION OF SULFATE-REDUCING BACTERIUM BY SAID METHOD, GYPSUM-TYPE SOLIDIFYING MATERIAL, AND GYPSUM-TYPE BUILDING MATERIAL” (priority 2012, published 2015)

Assays:
Type in all cases: cell-based
[1] = tested on: Sulfate-reducing bacterium: Desulfovibrio vulgaris DSM 644T
[2] = tested on: Colon bacillus: Escherichia coli NBRC 102203T; test: Proliferation-inhibiting (bacteriostatic) effect in Al-added culture medium, protein amount by BCA method; details: 2 mM or 20 mM Al solution in culture medium, anaerobic shaking culture 37° C.; FIG. 2 / FIG. 5
[3] = tested on: Butyric acid bacterium: Clostridium butyricum NBRC 13949T; details: 2 mM or 20 mM Al solution in culture medium, anaerobic shaking culture 37° C.; FIG. 3 / FIG. 6

In the case of oxalic acid/Al chelate [Example 2], the “selective bacteriostatic effect (sulfate-reducing bacterium versus colon bacillus and butyric acid bacterium)” value [1] is reported as “same selective bacteriostatic effects as in Example 1 were also recognized”.

In the case of [Cl][Al]([Cl])[Cl] [Comparative Example 1, AlCl3, reference compound], the “proliferation of the colon bacillus (increase in protein amount)” value [2] is reported as “inhibited”, the “proliferation of the sulfate-reducing bacterium (increase in protein amount)” value [1] is reported as “inhibited” and the “proliferation of the butyric acid bacterium (increase in protein amount)” value [3] is reported as “inhibited”.

For EDTA/Al chelate [Example 3], the “selective bacteriostatic effect (sulfate-reducing bacterium versus colon bacillus and butyric acid bacterium)” value [1] was “same selective bacteriostatic effects as in Example 1 were also recognized”.

With citric acid/Al chelate [Example 1] the “proliferation of the colon bacillus (increase in protein amount)” value [2] was “not inhibited”, the “proliferation of the sulfate-reducing bacterium (increase in protein amount)” value [1] was “inhibited” and the “selective bacteriostatic effect (sulfate-reducing bacterium versus colon bacillus and butyric acid bacterium)” value [1] was “selective bacteriostatic effect was recognized”. The “proliferation of the butyric acid bacterium (increase in protein amount)” value [3] was “not inhibited”.
